Assay results from US20220380764A1, “MOLECULAR GUIDE SYSTEM PEPTIDES AND USES THEREOF” (SRI International, priority 2019, published 2022).
Square brackets hold non-standard residues; d marks the D form. Primed or numbered codes have the meaning given here. Peptide text beside a SMILES is read from it. PEG12 = NCCOCCOCCOCCOCCOCCOCCOCCOCCOCCOCCOCCOCCC(=O)O; PEG11′ = not defined here

Key:
[1] = test system: Non-Small Cell Lung Cancer; experiment: Cellular location of MGS, carcinomas and solid tumors; assay type: cell-based; settings: for MSG Code and Cellular Location: Table 2, Intracellular = uptake confirmed, exact compartment not determined; for Cellular Location: Table 3, Carcinomas and Solid Tumors
Source text: (§1) The FOX-Three platform is based on established phage display libraries containing 10^9-10^12 candidate peptide-based MGS members that can be rapidly screened against target cells and subcellular systems to identify specifically targeted MGSs (FIG. 2). Peptides are a well-understood class of biomolecule that are readily synthesized by biological processes and through man-made chemical processes. […] It can be applied to any cell type, regardless of knowledge about the molecular features of that cell, producing a lead MGS in 2-4 weeks. Selected peptide-based MGSs are then readily engineered for optimal performance.
(§2) The FOX-Three Platform has already been validated for targeting of cells and subcellular components. A number of validated MGSs are in various stages of development (Table 1) for a variety of cell targeting systems. Methods of conjugating a variety of payloads to the peptide MGSs have been established without disrupting their targeting ability. […] The FOX-Three screening process was recently refined to include subcellular location targeting as a selection criteria. MGSs have been isolated that accumulate in lysosomes, autophagosomes, and Golgi inside cancer cells, as well as target the plasma membrane.

[2] = test system: Carcinomas and Solid Tumors; experiment: In vivo targeting of MGS; settings: Table 3; homing to target cell in an animal model
Source text: as §2

Lymphoma Cells = experiment: Cellular location of MGS, lymphoma and leukemia; assay type: cell-based; settings: Table 2
Source text: as §1

Dendritic Cells = experiment: Cellular location of MGS, dendritic cells; assay type: cell-based; settings: Table 2
Source text: as §1

H1993 Cells [3] = experiment: siRNA internalization with and without MGS (FIG. 5); assay type: cell-based; settings: SA-647, 5′-Biotinylated siRNA+SA-647, 3′-Biotinylated siRNA+SA-647, alone or conjugated to the MGS
Description: With this objective, novel MGSs were applied to facilitate cell-specific delivery of siRNA. As previously mentioned, these MGSs have the unique ability to bind to specific epithelial-derived cancer cell types, and upon binding, triggers rapid internalization and trafficking to specific subcellular locations. The chemically optimized MGSs have 1-2 nM affinities for their cellular targets, serum stability greater than 48 hours, and approximately 50-1000-fold specificity for targeted cancer cells over normal control cells. […] Internalization experiments were first performed using H1993 cells. For this set of experiments, the group of bars at the far right are 5′-Biotinylated siRNA+SA-647 and 3′-Biotinylated siRNA+SA-647 without MGS. The middle and far left bar groups show SA-647, 5′-Biotinylated siRNA+SA-647, and 3′-Biotinylated siRNA+SA-647 conjugated to a first MGS (SRI_MGS1_V4, right) and a second MGS (SRI_MGS2_V4, middle).

Cardiomyocytes = experiment: Cellular location of MGS, cardiomyocytes; assay type: cell-based; settings: Table 2
Source text: as §1

H1299 Cells = experiment: SRI_MGS2_V4 uptake profile (effective dose, stoichiometry, rate of uptake); assay type: cell-based
Source text: (§3) 1. Example 1: Effective Dose, Stoichiometry, and Rate of Uptake for MGS 2

H1993 Cells [4] = experiment: as above; assay type: cell-based
Source text: as §3

H2009 Cells = experiment: as above; assay type: cell-based
Source text: as §3

H358 Cells = experiment: as above; assay type: cell-based
Source text: as §3

## LQWRRDDNVHNFGVWARYRL (MGS peptide) [MGS_1299.3]
[1]
  MSG Code and Cellular Location: MGS_H1299.3_Autophagosomes
  Cellular Location: Autophagasome
[2]
  In Vivo Targeting: Yes

## FHAVPQSFYTAP (MGS peptide) [MGS_HCC15.2]
[1]
  MSG Code and Cellular Location: MGS_HCC15.2_Lysosomal
  Cellular Location: Lysosome
[2]
  In Vivo Targeting: Yes

## EAMNSAEQSAAVVQWEKRRI (MGS peptide) [MGS_H460.1]
[1]
  MSG Code and Cellular Location: MGS_H460.1_PlasmaMembrane

## KSREHVNNSACPSKRITAAL (MGS peptide) [MGS_A20.2]
Lymphoma Cells
  MSG Code and Cellular Location: MGS_A20.2_ Plasma Membrane

## GPEDTSRAPENQQKTFHRRW (MGS peptide) [MGS_XS52.1]
Dendritic Cells
  MSG Code and Cellular Location: MGS_XS52.1_Intacellular

## RGDLATLRQLAQEDGVVGVR (MGS peptide) [MGS_H2009.1]
[1]
  MSG Code and Cellular Location: MGS_H2009.1_Golgi
  Cellular Location: Golgi
[2]
  In Vivo Targeting: Yes

## SVEYWGERMYYDVMESLGFS (MGS peptide) [MGS_H1993.1]
[1]
  MSG Code and Cellular Location: MGS_H1993.1_Lysosome

## YPGSPTQYPSSMHEYHSSSE (MGS peptide) [MGS_H2009.3]
[1]
  MSG Code and Cellular Location: MGS_H2009.3_Lysosome

## SAKTAVSQRVWLPSHRGGEP (MGS peptide) [MGS_A20.1]
Lymphoma Cells
  MSG Code and Cellular Location: MGS_A20.1_PlasmaMembrane

## AHTIDDEWASYHMQQWNSPP (MGS peptide) [MGS_H2009.4]
[1]
  MSG Code and Cellular Location: MGS_H2009.4_Golgi/ER

## QEALEEWFWKMMPWSGPSGQ (MGS peptide) [MGS_H1993.3]
[1]
  MSG Code and Cellular Location: MGS_H1993.3_Intracellular

## FEEFYSRQSNTIPYPQQYKG (MGS peptide) [MGS_H2009.5]
[1]
  MSG Code and Cellular Location: MGS_H2009.5_ER/Lysosome

## SADWFQGPAEWLLEGWMGPL (MGS peptide) [MGS_H1993.6]
[1]
  MSG Code and Cellular Location: MGS_H1993.6_Intracellular

## VSQTMRQTAVPLLWFWTGSL (MGS peptide) [MGS_H1299.1]
[1]
  MSG Code and Cellular Location: MGS_H1299.1_Intracellular

## CH3CO-RGDLATLRQL-PEG11-YC-NH2 (Ac-RGDLATLRQL[PEG11′]YC-NH2) [SRI_MGS1_V4]
H1993 Cells [3]
  molecules internalized per cell: approximately 25000 molecules internalized per cell

## MDGATWWTQLDPLLVWEGET (MGS peptide) [MGS_H1993.5]
[1]
  MSG Code and Cellular Location: MGS_H1993.5_Intracellular

## MTVCNASQRQAHAQATAVSL (MGS peptide) [MGS_A549.1]
[1]
  MSG Code and Cellular Location: MGS_A549.1_Intracellular

## TWTDFGQWPWPFGAEGTRAF (MGS peptide) [MGS_H1993.4]
[1]
  MSG Code and Cellular Location: MGS_H1993.4_Pre-mitotic cells

## FAAKRAEWWDPGQLWDAVWN (MGS peptide) [MGS_H1993.2]
[1]
  MSG Code and Cellular Location: MGS_H1993.2_Intracellular

## ATEPRKQYATPRVFWTDAPG (MGS peptide) [MGS_HCC15.1]
[1]
  MSG Code and Cellular Location: MGS_HCC15.1_Intracellular
  Cellular Location: Lysosome
[2]
  In Vivo Targeting: Yes

## WLSEAGPVVTVRALRGTGSW (MGS peptide) [MGS_PCM.1]
Lymphoma Cells
  MSG Code and Cellular Location: MGS_PCM.1_ Plasma Membrane
Cardiomyocytes
  MSG Code and Cellular Location: MGS_PCM.1_Intracellular

## EHPWFNMWSWATQVQE (MGS peptide) [MGS_H2009.2]
[1]
  MSG Code and Cellular Location: MGS_H2009.2_Lysosome
  Cellular Location: Lysosome

## CC(=O)N[C@@H](Cc1ccc(O)cc1)C(=O)N[C@@H](C)C(=O)N[C@@H](C)C(=O)N[C@@H](Cc1c[nH]c2ccccc12)C(=O)N1CCC[C@H]1C(=O)N[C@@H](C)C(=O)N[C@@H](CO)C(=O)NCC(=O)N[C@@H](C)C(=O)N[C@@H](Cc1c[nH]c2ccccc12)C(=O)N[C@H](C(=O)NCCOCCOCCOCCOCCOCCOCCOCCOCCOCCOCCOCCOCCC(=O)N[C@@H](CS)C(N)=O)[C@@H](C)O [SRI_MGS2_V4, CH3CO-YAAWPASGAWT-PEG11-C-NH2] (Ac-YAAWPASGAWT[PEG12]C-NH2)
H1299 Cells; H1299 cells, 6 H with constant incubation of 20 nM MGS
  Molecules Internalized, 6 H: 125500 ± 5430 molecules
H1299 Cells; H1299 cells, average number of MGS molecules internalized per cell at saturation concentration at 1 H
  Saturation (molecules): 112800 ± 15500 molecules
H1299 Cells; H1299 cells, rate of uptake
  t1/2: 37 min
H1299 Cells; ratio of MGS uptake on H1299 vs. normal human bronchial epithelial cell line (HBEC)
  Specificity: 1400
H1993 Cells [4]; H1993 cells, 6 H with constant incubation of 20 nM MGS
  Molecules Internalized, 6 H: 134300 ± 6300 molecules
H1993 Cells [4]; H1993 cells, average number of MGS molecules internalized per cell at saturation concentration at 1 H
  Saturation (molecules): 141600 ± 28200 molecules
H1993 Cells [4]; H1993 cells, rate of uptake
  t1/2: 12 min
H1993 Cells [4]; ratio of MGS uptake on H1993 vs. normal human bronchial epithelial cell line (HBEC)
  Specificity: 2300
H2009 Cells; H2009 cells, 6 H with constant incubation of 20 nM MGS
  Molecules Internalized, 6 H: 49500 ± 2230 molecules
H2009 Cells; H2009 cells, average number of MGS molecules internalized per cell at saturation concentration at 1 H
  Saturation (molecules): 68300 ± 3030 molecules
H2009 Cells; H2009 cells, rate of uptake
  t1/2: 13 min
H2009 Cells; ratio of MGS uptake on H2009 vs. normal human bronchial epithelial cell line (HBEC)
  Specificity: 560
H358 Cells; H358 cells, 6 H with constant incubation of 20 nM MGS
  Molecules Internalized, 6 H: 97100 ± 4830 molecules
H358 Cells; H358 cells, average number of MGS molecules internalized per cell at saturation concentration at 1 H
  Saturation (molecules): 99900 ± 9640 molecules
H358 Cells; H358 cells, rate of uptake
  t1/2: 11 min
H358 Cells; ratio of MGS uptake on H358 vs. normal human bronchial epithelial cell line (HBEC)
  Specificity: 1100

## YAAWPASGAWTGTAPCSAGT (MGS peptide) [MGS_1299.2]
[1]
  MSG Code and Cellular Location: MGS_H1299.2_Intracellular
  Cellular Location: Lysosome
[2]
  In Vivo Targeting: Yes
